Assay results from article PMC6302903, “Protein and Chemical Determinants of BL-1249 Action and Selectivity for K2P Channels” (ACS Chemical Neuroscience, 2018).

Key:
K2P18.1(TRESK) = tested on: K2P18.1(TRESK); parameters: method as in PMID 27641472; details: cited from earlier work
K2P4.1(TRAAK) = biological target: T1, K2P4.1(TRAAK) (Mus musculus, UniProt O88454); assay: TEVC of K2P4.1(TRAAK) in Xenopus oocytes; assay type: cell-based; details: I/I0 at 0 mV
T1 construct: expressed in transfected cells; host or cells: Xenopus laevis oocytes injected with mRNA made from pGEMHE/pMO
T1 sequence (O88454 1-398): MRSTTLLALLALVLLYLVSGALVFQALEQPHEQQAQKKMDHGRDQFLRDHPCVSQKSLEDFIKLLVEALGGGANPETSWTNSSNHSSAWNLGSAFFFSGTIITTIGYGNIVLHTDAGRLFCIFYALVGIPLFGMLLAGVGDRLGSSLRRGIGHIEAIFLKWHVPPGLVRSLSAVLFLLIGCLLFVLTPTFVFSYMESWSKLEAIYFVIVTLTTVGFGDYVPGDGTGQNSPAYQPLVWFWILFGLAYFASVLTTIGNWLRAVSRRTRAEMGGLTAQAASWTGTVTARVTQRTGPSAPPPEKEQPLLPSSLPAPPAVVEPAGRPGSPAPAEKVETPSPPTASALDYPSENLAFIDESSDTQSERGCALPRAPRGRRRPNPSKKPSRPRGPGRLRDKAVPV
From the text: (§1) Constructs for murine K2P channels, including K2P2.1(TREK-1) (Gene ID 16526), K2P10.1(TREK-2) (Gene ID 72258), K2P4.1(TRAAK) (Gene ID 16528), K2P5.1(TASK-2) (Gene ID 16529), K2P3.1(TASK-1) (Gene ID 16527), K2P9.1(TASK-3) (Gene ID 223604), and K2P18.1(TRESK) (Gene ID 332396) in pGEMHE/pMO, were used for Xenopus oocyte experiments as previously described.[10],[26] Murine K2P2.1(TREK-1) (Gene ID 16526) was expressed in HEK-293 cells using a pIRES-EGFP construct as previously described.[26] Murine K2P13.1(THIK-1) (Gene ID 217826) and K2P1.1(TWIK-1) (Gene ID 16525) were cloned into pGEMHE/pMO for use in Xenopus oocytes. Chimeras were designed using EMBOSS Needle pairwise sequence alignment tool[58] to match homologous helices in K2P2.1(TREK-1) and K2P4.1(TRAAK) and were assembled using the Gibson assembly method.[59] Chimera boundaries are Thr152 (TREK-1/AAK M2-C), Trp199 (TREK-1/AAK M3-C), Y272 (TREK-1/AAK M4-C), Thr114 (TRAAK/EK-1 M2-C), Trp161 (TRAAK/EK-1 M3-C), and Tyr234 K2P4.1(TRAAK). All sequences were verified using DNA sequencing.
(§2) Xenopus laevis oocytes were harvested in accordance with UCSF IACUC protocol AN129690 and digested in calcium-free ND-96 (96 mM NaCl, 2 mM KCl, 3.8 mM MgCl2) immediately following harvest, as previously described.[6],[10] Digested oocytes were maintained in standard ND96 (96 mM NaCl, 2 mM KCl, 1.8 mM CaCl2, 2 mM MgCl2) with antibiotics (100 units mL^–1 penicillin, 100 μg mL^–1 streptomycin, 50 μg mL^–1 gentimycin). Defolliculated stage V–VI oocytes were injected with 0.2–6.0 ng of mRNA in 50 nL, and currents were recorded 24–48 h after injection. mRNA was synthesized from plasmid DNA using mMessage mMachine Kit (T7 promoter, Ambion, Life Technologies) and purified using RNEasy Kit (Qiagen). Injected oocytes were impaled with two standard microelectrodes (0.2–1.0 MΩ) filled with 3 M KCl and subjected to constant perfusion of standard ND96 during recording. Currents were amplified using the GeneClamp 500B (MDS Analytical Technologies) amplifier controlled by the pClamp software (Molecular Devices). Data were digitized at 1 kHz using Digidata 1332A (MDS Analytical Technologies). For all experiments with small molecules, basal currents were evoked using 1 s long ramps from −150 to +50 mV under constant perfusion of ND96. Once stabilized basal currents were recorded, compounds were perfused at various concentrations in standard ND96 and currents were allowed to increase to stabilization before recording final current. Fold activation upon compound application is expressed as I/I0 (0 mV), derived from the current at 0 mV in the presence of compound divided by the basal current at 0 mV in standard ND96 without compound. Data were analyzed and plotted using Graphpad Prism Version 5 (GraphPad Software, San Diego California USA, www.graphpad.com). […] In the case of BL-1249-acid EC50 estimation, upper bound of I/I0 was set to 20 to account for the strong stimulation of BL-1249-acid.

K2P2.1(TREK-1) = biological target: T2, K2P2.1(TREK-1) (Mus musculus, UniProt P97438); assay: TEVC of K2P2.1(TREK-1) in Xenopus oocytes; assay type: cell-based; parameters: expressed in transfected cells; host or cells: Xenopus laevis oocytes injected with mRNA made from pGEMHE/pMO; details: for effect on K2P2.1(TREK-1) current (in words): dose-response
T2 sequence (P97438 1-411 isoform P97438-2): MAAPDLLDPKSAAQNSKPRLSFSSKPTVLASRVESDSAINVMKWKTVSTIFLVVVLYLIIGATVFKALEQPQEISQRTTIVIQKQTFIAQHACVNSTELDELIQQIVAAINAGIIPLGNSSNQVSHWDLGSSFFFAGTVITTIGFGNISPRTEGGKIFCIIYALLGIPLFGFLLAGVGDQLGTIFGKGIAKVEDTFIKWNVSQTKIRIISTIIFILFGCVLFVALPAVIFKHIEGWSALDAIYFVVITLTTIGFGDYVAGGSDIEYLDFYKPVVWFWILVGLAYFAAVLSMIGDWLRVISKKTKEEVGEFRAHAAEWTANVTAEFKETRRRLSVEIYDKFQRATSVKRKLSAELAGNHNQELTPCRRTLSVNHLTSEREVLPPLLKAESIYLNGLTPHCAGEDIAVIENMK
From the text: as §1, §2

TREK-1/AAK M3-C = biological target: T3, TREK-1/AAK M3-C (Mus musculus, UniProt O88454+P97438); assay: TEVC of chimera TREK-1/AAK M3-C; assay type: cell-based; details: Xenopus oocytes
T3 construct: Trp199 (TREK-1/AAK M3-C); expressed in transfected cells; host or cells: Xenopus laevis oocytes, mRNA injected; chimera built by Gibson assembly
T3 sequence (P97438+O88454 with tags, fused parts or gaps P97438:N200H/P97438:S202P/P97438:Q203P/P97438:T204G/P97438:K205L/P97438:I206V/P97438:I208S/P97438:I209L/P97438:T211A/P97438:I212V/P97438:I213L/P97438:I215L/P97438:F217I/P97438:V220L/P97438:A224L/P97438:L225T/P97438:A227T/P97438:V228F/P97438:I229V/P97438:K231S/P97438:H232Y/P97438:I233M/P97438:G235S/P97438:A238K/P97438:D240E/P97438:V246I/P97438:I247V/P97438:I252V/P97438:A259P/P97438:G261D/P97438:S262G/P97438:D263T/P97438:I264G/P97438:E265Q/P97438:Y266N/P97438:L267S/P97438:D268P/P97438:F269A/P97438:K271Q/P97438:V273L/P97438:V280F/P97438:A287S/P97438:S290T/P97438:M291T/P97438:D294N): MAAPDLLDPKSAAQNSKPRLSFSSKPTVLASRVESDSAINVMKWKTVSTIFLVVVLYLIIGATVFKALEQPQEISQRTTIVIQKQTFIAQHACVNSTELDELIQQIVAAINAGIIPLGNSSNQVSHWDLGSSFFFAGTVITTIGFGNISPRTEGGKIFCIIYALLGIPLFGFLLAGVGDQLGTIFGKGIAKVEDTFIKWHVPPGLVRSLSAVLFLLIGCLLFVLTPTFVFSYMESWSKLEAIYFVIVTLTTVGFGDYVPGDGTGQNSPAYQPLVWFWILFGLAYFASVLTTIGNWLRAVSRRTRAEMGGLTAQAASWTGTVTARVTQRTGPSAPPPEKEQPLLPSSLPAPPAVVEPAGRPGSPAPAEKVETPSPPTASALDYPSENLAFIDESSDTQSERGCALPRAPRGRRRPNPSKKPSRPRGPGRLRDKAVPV

TRAAK/EK-1 M2-C = biological target: T4, TRAAK/EK-1 M2-C (Mus musculus, UniProt O88454+P97438, A151S/D143N/F160Y/H141A/P165L/Q138H/R166H/S147A/S164V/V139S/V154I); assay: TEVC of chimera TRAAK/EK-1 M2-C; assay type: cell-based; details: Xenopus oocytes
T4 construct: Thr114 (TRAAK/EK-1 M2-C); expressed in transfected cells; host or cells: Xenopus laevis oocytes, mRNA injected; chimera built by Gibson assembly
T4 sequence (O88454+P97438 fused with the stated changes): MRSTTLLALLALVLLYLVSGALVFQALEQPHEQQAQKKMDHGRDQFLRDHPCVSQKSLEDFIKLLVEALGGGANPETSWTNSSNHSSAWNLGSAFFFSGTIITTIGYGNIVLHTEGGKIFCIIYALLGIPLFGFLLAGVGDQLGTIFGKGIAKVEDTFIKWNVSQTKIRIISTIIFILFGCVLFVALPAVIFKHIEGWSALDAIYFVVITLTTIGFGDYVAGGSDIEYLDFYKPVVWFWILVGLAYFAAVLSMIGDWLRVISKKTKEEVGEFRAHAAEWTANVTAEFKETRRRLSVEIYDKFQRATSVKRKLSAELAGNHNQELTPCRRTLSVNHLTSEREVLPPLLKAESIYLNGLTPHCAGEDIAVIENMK

TRAAK/EK-1 M3-C = biological target: T5, TRAAK/EK-1 M3-C (Mus musculus, UniProt O88454+P97438, A173T/A231F/D223G/E202D/F190V/F242V/G166T/G224S/G226I/H162N/I179F/I208V/K200A/L167K/L171I/L175I/L177I/L182V/L186A/L235V/M195I/N228Y/N256D/P164S/P165Q/P221A/P230D/Q227E/Q233K/S170I/S193K/S197G/S229L/S249A/T187L/T189A/T225D/T252S/T253M/V168I/V174I/V191I/V209I/V214I/Y194H); assay: TEVC of chimera TRAAK/EK-1 M3-C; assay type: cell-based; details: Xenopus oocytes
T5 construct: Trp161 (TRAAK/EK-1 M3-C); expressed in transfected cells; host or cells: Xenopus laevis oocytes, mRNA injected; chimera built by Gibson assembly
T5 sequence (O88454+P97438 fused with the stated changes): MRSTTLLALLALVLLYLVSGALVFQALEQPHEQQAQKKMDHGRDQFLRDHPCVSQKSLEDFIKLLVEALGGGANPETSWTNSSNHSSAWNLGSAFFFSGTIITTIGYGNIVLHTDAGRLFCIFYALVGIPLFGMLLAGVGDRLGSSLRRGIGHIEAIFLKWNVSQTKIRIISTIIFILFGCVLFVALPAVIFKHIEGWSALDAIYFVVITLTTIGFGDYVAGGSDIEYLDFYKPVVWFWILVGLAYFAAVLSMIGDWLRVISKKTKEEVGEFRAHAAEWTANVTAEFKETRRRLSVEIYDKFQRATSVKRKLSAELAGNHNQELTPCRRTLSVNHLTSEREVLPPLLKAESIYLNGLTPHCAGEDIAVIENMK

TREK-1/AAK M2-C = TREK-1/AAK M2-C (Mus musculus, UniProt O88454+P97438); assay: TEVC of chimera TREK-1/AAK M2-C; assay type: cell-based; details: Xenopus oocytes
Sequence of TREK-1/AAK M2-C (P97438 16-167, one chain of several): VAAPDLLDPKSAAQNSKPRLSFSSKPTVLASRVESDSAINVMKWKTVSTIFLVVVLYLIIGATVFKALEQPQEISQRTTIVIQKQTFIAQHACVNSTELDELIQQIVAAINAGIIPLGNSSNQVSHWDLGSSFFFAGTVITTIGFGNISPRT

TREK-1/AAK M4-C = biological target: T6, TREK-1/AAK M4-C (Mus musculus, UniProt O88454+P97438); assay: TEVC of chimera TREK-1/AAK M4-C; assay type: cell-based; details: Xenopus oocytes
T6 construct: Y272 (TREK-1/AAK M4-C); expressed in transfected cells; host or cells: Xenopus laevis oocytes, mRNA injected; chimera built by Gibson assembly
T6 sequence (P97438+O88454 with tags, fused parts or gaps P97438:V273L/P97438:V280F/P97438:A287S/P97438:S290T/P97438:M291T/P97438:D294N): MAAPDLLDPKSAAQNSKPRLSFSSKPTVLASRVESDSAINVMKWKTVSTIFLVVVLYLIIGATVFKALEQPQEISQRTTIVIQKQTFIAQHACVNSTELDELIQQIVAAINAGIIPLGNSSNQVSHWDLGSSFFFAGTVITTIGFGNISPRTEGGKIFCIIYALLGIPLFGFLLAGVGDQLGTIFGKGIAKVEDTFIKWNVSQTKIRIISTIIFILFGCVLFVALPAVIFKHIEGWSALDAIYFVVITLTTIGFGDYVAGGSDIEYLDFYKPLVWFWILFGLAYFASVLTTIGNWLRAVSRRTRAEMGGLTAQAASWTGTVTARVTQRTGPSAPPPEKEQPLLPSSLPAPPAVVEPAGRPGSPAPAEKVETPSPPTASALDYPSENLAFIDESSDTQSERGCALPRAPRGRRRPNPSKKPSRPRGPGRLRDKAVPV

TRAAK/EK-1 M4-C = biological target: T7, TRAAK/EK-1 M4-C (Mus musculus, UniProt O88454+P97438, F242V/L235V/N256D/S249A/T252S/T253M); assay: TEVC of chimera TRAAK/EK-1 M4-C; assay type: cell-based; details: Xenopus oocytes
T7 construct: and Tyr234 K2P4.1(TRAAK); expressed in transfected cells; host or cells: Xenopus laevis oocytes, mRNA injected; chimera built by Gibson assembly
T7 sequence (O88454+P97438 fused with the stated changes): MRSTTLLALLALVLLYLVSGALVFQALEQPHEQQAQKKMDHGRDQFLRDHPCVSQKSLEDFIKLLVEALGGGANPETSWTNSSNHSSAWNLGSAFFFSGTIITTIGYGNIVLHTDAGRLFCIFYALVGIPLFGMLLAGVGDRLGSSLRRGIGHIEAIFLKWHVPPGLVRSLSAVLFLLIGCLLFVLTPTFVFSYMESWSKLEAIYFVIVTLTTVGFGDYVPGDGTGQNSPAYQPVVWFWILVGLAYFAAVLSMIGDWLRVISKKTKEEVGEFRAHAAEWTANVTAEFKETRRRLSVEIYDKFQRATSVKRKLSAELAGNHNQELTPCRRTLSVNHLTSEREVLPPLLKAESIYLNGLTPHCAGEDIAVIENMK

[1] = extracellular application, fold activation I/I0 at 0 mV

**Q.** Which “functional effect on K2P18.1(TRESK)” value (K2P18.1(TRESK)) does the source give for O=C(O)c1ccccc1Nc1cccc2c1CCCC2 [BL-1249-acid] here?
**A.** inhibitor

**Q.** And the EC50 (K2P4.1(TRAAK))?
**A.** > 200 µM

**Q.** And the “loss of potency on K2P2.1(TREK-1) relative to BL-1249-amide” value (K2P2.1(TREK-1))?
**A.** ~2 fold

**Q.** And the EC50 (K2P2.1(TREK-1); EC50 estimated imposing an upper boundary of 20 (fold activation, I/I0))?
**A.** 44 ± 10 µM

**Q.** What about the “effect on K2P2.1(TREK-1) current (in words)” value (K2P2.1(TREK-1)) of the same compound?
**A.** stronger stimulatory effect on the current than either BL-1249 or BL-1249-amide

**Q.** Which results are given for NC(=O)c1ccccc1Nc1cccc2c1CCCC2 [BL-1249-amide]?
**A.** EC50 (K2P4.1(TRAAK)): > 200 µM; EC50 (K2P2.1(TREK-1); [1]): 22 ± 8 µM

**Q.** With c1ccc(Nc2ccccc2-c2nnn[nH]2)cc1 [BL-1249-Ph] as the compound, how does the EC50 (K2P4.1(TRAAK)) read?
**A.** > 200 µM

**Q.** What about the “effect on K2P2.1(TREK-1) current (in words)” value (K2P2.1(TREK-1)) of the same compound?
**A.** only a small amount of stimulatory effect

**Q.** What about the EC50 (K2P2.1(TREK-1); [1]) of the same compound?
**A.** > 200 µM

**Q.** Which EC50 (TREK-1/AAK M3-C) does the source give for CC1(C)c2cc(Cl)ccc2N(CCc2nn[nH]n2)c2ccc(Cl)cc21 [ML67-33] here?
**A.** 49 ± 22 µM

**Q.** And the EC50 (TRAAK/EK-1 M2-C)?
**A.** 33 ± 1 µM

**Q.** And the EC50 (TRAAK/EK-1 M3-C)?
**A.** 44 ± 14 µM

**Q.** What about the EC50 (TREK-1/AAK M2-C) of the same compound?
**A.** 42 ± 3 µM

**Q.** What about the EC50 (TREK-1/AAK M4-C) of the same compound?
**A.** 42 ± 3 µM

**Q.** What about the EC50 (TRAAK/EK-1 M4-C) of the same compound?
**A.** 31 ± 3 µM

**Q.** What does the source list for c1ccc2c(c1)Nc1c(-c3nnn[nH]3)cccc1C21CCCCC1 [BL-1249-tricycle]?
**A.** EC50 (K2P4.1(TRAAK)): 42 ± 9 µM; effect on K2P2.1(TREK-1) current (in words) (K2P2.1(TREK-1)): inhibition between 0.1 and 10 μM followed by activation at higher concentrations; EC50 (K2P2.1(TREK-1); [1]): 34 ± 6 µM
